Test results published in patent US12365655B2, “Compounds” (CTXT PTY LTD, priority 2018, dated 2025).
Counter-ions that a name gives are not always drawn.

Tests used:
MOZ-KAT6A = MOZ-KAT6A (Homo sapiens, UniProt Q92794, A567V); test: Acetyltransferase biochemical assay (AlphaScreen), KAT6A
TIP60-KAT5 = TIP60-KAT5 (Homo sapiens, UniProt Q92993); test: Acetyltransferase biochemical assay (AlphaScreen), KAT5
HBO-KAT7 = HBO-KAT7 (Homo sapiens, UniProt O95251); test: Acetyltransferase biochemical assay (AlphaScreen), KAT7
Chain of HBO-KAT7 (O95251 with tags, fused parts or gaps): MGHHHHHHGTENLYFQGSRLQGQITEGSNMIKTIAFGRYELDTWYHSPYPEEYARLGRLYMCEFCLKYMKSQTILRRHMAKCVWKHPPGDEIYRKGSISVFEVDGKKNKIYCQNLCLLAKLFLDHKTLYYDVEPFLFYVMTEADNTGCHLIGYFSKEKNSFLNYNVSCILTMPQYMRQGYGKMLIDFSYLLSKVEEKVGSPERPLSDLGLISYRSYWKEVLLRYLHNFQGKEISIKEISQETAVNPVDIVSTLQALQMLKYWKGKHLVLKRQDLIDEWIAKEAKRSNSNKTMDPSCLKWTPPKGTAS

Chain of MOZ-KAT6A (Q92794 with tags, fused parts or gaps A567V): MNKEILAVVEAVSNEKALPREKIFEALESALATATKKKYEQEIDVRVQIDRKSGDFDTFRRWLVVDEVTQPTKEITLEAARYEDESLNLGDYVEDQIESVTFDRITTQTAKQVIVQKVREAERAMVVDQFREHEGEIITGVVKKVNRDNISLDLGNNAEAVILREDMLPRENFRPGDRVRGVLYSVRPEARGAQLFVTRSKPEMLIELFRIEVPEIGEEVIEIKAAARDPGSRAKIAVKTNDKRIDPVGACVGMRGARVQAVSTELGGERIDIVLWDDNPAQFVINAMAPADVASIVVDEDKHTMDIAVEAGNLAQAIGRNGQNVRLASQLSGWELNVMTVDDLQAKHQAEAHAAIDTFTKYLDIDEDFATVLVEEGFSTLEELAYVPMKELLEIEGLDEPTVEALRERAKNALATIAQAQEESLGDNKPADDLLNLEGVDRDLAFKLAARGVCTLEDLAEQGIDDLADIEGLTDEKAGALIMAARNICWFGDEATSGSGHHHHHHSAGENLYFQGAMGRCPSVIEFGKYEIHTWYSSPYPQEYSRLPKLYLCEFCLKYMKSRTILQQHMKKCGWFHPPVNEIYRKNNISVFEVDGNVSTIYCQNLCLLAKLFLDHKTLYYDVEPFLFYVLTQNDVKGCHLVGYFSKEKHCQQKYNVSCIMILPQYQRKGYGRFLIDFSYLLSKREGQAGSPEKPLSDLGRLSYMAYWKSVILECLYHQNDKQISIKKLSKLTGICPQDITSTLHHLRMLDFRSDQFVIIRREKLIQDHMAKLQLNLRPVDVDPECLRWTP
Chain of TIP60-KAT5 (Q92993 with tags, fused parts or gaps isoform Q92993-2): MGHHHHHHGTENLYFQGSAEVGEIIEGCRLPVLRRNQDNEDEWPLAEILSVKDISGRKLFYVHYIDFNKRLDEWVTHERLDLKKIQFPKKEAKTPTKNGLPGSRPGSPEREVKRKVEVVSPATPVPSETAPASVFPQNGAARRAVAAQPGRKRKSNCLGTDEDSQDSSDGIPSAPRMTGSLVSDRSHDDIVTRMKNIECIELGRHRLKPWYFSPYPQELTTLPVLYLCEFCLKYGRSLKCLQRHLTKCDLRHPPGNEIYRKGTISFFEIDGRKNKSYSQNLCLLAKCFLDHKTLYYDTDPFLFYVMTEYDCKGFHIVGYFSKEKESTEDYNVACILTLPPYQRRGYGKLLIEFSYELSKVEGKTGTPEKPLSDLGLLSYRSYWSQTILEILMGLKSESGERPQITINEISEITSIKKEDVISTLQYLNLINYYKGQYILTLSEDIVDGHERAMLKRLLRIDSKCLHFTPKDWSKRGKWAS

IC50 (MOZ-KAT6A)	IC50 (TIP60-KAT5)	IC50 (HBO-KAT7)	Structure (SMILES)
8.53 µM	> 125 µM	6.54 µM	COc1cc(CN)cc(OC)c1S(=O)(=O)Nc1noc2cccc(OC)c12 [Example 210, 4-(Aminomethyl)-2,6-dimethoxy-N-(4-methoxybenzo[d]isoxazol-3-yl)benzenesulfonamide hydrochloride]
0.364 µM	4.73 µM	0.678 µM	CCc1ccc(OC)c(S(=O)(=O)Nc2noc3cccc(C4CC4)c23)c1 [Example 200]
5.97 µM	23 µM	12.9 µM	O=S(=O)(Nc1noc2cccc(Cl)c12)c1cccc(-c2ccccc2)c1 [Example 43, N-(4-chlorobenzo [d]isoxazol-3-yl)-[1,1-biphenyl]-3-sulfonamide]
43.7 µM	> 125 µM	70.6 µM	O=S(=O)(Nc1noc2ccccc12)c1ccc(Cl)cc1Cl [Example 62, N-(benzo[d]isoxazol-3-yl)-2,4-dichlorobenzene-sulfonamide]
4.45 µM	45.7 µM	5.34 µM	CCc1ccc(OC)c(S(=O)(=O)Nc2noc3c(OCC4CC4)cccc23)c1 [Example 133]
6.85 µM	90.5 µM	11.4 µM	COc1cc(C)c(C)cc1S(=O)(=O)Nc1noc2cccc(Cl)c12 [Example 33, N-(4-chlorobenzo [d]isoxazol-3-yl)-2-methoxy-4,5-dimethylbenzenesulfonamide]
1.51 µM	37.8 µM	6.87 µM	CCc1ccc(OC)c(S(=O)(=O)Nc2noc3cc(CC)ccc23)c1 [Example 194]
13.9 µM	95.4 µM	23.3 µM	CCc1ccc(OC)c(S(=O)(=O)Nc2noc3cc(-c4cnn(C)c4)ccc23)c1 [Example 196, 5-Ethyl-2-methoxy-N-(6-(1-methyl-1H-pyrazol-4-yl)benzo[d]isoxazol-3-yl)benzenesulfonamide]
59 µM	> 125 µM	> 125 µM	CCc1ccc(OC)c(S(=O)(=O)Nc2noc3ccc(C(=O)N(C)C)cc23)c1 [Example 231, 3-((5-Ethyl-2-methoxyphenyl)sulfonamido)-N,N-dimethylbenzo[d]isoxazole-5-carboxamide]
4.95 µM	> 125 µM	18 µM	CCc1ccc(OC)c(S(=O)(=O)Nc2noc3ccc(-c4cnn(C)c4)cc23)c1 [Example 237, 5-Ethyl-2-methoxy-N-(5-(1-methyl-1H-pyrazol-4-yl)benzo[d]isoxazol-3-yl)benzenesulfonamide]
51.9 µM	85.4 µM	> 125 µM	O=S(=O)(Nc1noc2ccccc12)c1ccc(Cl)c(Cl)c1 [Example 61, N-(benzo[d]isoxazol-3-yl)-3,4-dichlorobenzene-sulfonamide]
21 µM	> 125 µM	45.7 µM	CCc1ccc(OC)c(S(=O)(=O)Nc2noc3cc(-c4cncnc4)ccc23)c1 [Example 197, 5-Ethyl-2-methoxy-N-(6-(pyrimidin-5-yl)benzo[d]isoxazol-3-yl)benzenesulfonamide]
22.6 µM	74.3 µM	23.4 µM	CCc1ccc(OC)c(S(=O)(=O)Nc2noc3cccc(-c4cncnc4)c23)c1 [Example 203, 5-Ethyl-2-methoxy-N-(4-(pyrimidin-5-yl)benzo[d]isoxazol-3-yl)benzenesulfonamide]
> 125 µM	> 125 µM	31.5 µM	O=S(=O)(Nc1noc2cccc(Cl)c12)c1ccc(OC(F)F)cc1 [Example 34, N-(4-chlorobenzo [d]isoxazol-3-yl)-4-(difluoromethoxy) benzenesulfonamide]
2.9 µM	> 125 µM	63.2 µM	COc1cccc(OC)c1S(=O)(=O)Nc1noc2cc(-n3nc(C)cc3C)ccc12 [Example 105]
38.2 µM	> 125 µM	10.1 µM	O=S(=O)(Nc1noc2cccc(Cl)c12)c1cccc2c1OCCO2 [Example 39, N-(4-chlorobenzo [d]isoxazol-3-yl)-2,3-dihydrobenzo[b][1,4]dioxine-5-sulfonamide]
